Measured values as given in the supplement of paper PMC10331698.
± gives the standard deviation of the averaged measurements.

Assays:
Experiment in all cases: level (log10 ratio to DMSO vehicle control); higher = higher biomarker level / cell amount than vehicle control
Details in all cases: in DMSO
[1] = compound: O=S(=O)(F)C(F)(F)C(F)(F)C(F)(F)C(F)(F)C(F)(F)C(F)(F)C(F)(F)C(F)(F)F [Perfluorooctanesulfonyl fluoride]
Method: (§1)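 BioMAP Diversity Plus panel of 12 human primary cell co-culture systems (3C, 4H, LPS, SAg, BT, BF4T, BE3C, CASM3C, HDF3CGF, KF3CT, MyoF, Mphg). Compounds were added 1 h before stimulation and left for 24 h (MyoF 48 h; BT 72 h for soluble read-outs or 6 d for IgG). Biomarkers were read by ELISA, cytotoxicity by SRB, PBMC viability and proliferation by Alamar Blue. Each well value was divided by the mean of 8 DMSO control wells on the same plate and log10 transformed; duplicate blinded samples were tested at 4 concentrations.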

[2] = compound: O=S(=O)(Cl)C(F)(F)C(F)(F)C(F)(F)C(F)(F)C(F)(F)C(F)(F)C(F)(F)C(F)(F)F [Perfluoro-1-octanesulfonyl chloride]
Method: as §1

Nonafluoropentanamide = compound: NC(=O)C(F)(F)C(F)(F)C(F)(F)C(F)(F)F [Nonafluoropentanamide]
Method: as §1

Hexafluoroamylene glycol = compound: OCC(F)(F)C(F)(F)C(F)(F)CO [Hexafluoroamylene glycol]
Method: as §1

[3] = compound: NS(=O)(=O)C(F)(F)C(F)(F)C(F)(F)C(F)(F)C(F)(F)C(F)(F)F [Perfluorohexanesulfonamide]
Method: as §1

[4] = compound: FC(F)(F)C(F)(F)C(F)(F)CC1CO1 [1H,1H-Heptafluorobutyl epoxide]
Method: as §1

Test System	level (log10) ([1]; 6700 nM)	level (log10) ([1]; 20000 nM)	level (log10) ([1]; 60000 nM)	level (log10) ([2]; 6700 nM)	level (log10) ([2]; 20000 nM)	level (log10) ([2]; 60000 nM)	level (log10) (Nonafluoropentanamide; 6700 nM)	level (log10) (Nonafluoropentanamide; 20000 nM)	level (log10) (Nonafluoropentanamide; 60000 nM)	level (log10) (Hexafluoroamylene glycol; 6700 nM)	level (log10) (Hexafluoroamylene glycol; 20000 nM)	level (log10) (Hexafluoroamylene glycol; 60000 nM)	level (log10) ([3]; 6700 nM)	level (log10) ([3]; 20000 nM)	level (log10) ([3]; 60000 nM)	level (log10) ([4]; 6700 nM)	level (log10) ([4]; 20000 nM)	level (log10) ([4]; 60000 nM)
HDF3CGF:CD106/VCAM-1	-0.011 ± 0.02	-0.071 ± 0.05	-0.083 ± 0.048	-0.051 ± 0.04	-0.0065 ± 0.0064	-0.042 ± 0.0085	0.008 ± 0.028	0.0185 ± 0.03	-0.0085 ± 0.037	0.042 ± 0.083	0.0495 ± 0.08	0.041 ± 0.055	-0.0505 ± 0.059	-0.034 ± 0.042	-0.205 ± 0.0092	0.013 ± 0.0099	-0.017 ± 0.0014	-0.04 ± 0.021
HDF3CGF:CXCL8/IL-8	-0.002 ± 0.0028	-0.0015 ± 0.00071	0.0085 ± 0.0021	-0.008 ± 0.0014	0.0065 ± 0.0092	0.0265 ± 0.012	-0.0045 ± 0.0035	-0.0005 ± 0.0021	0.0015 ± 0.005	-0.0325 ± 0.04	-0.011 ± 0.0028	0.009 ± 0.024	0.0015 ± 0.0021	0.0035 ± 0.0021	0.017 ± 0.013	-0.0075 ± 0.022	-0.0115 ± 0.0078	0.0005 ± 0.0078
HDF3CGF:CXCL9/MIG	-0.01 ± 0.0028	0.0125 ± 0.0092	-0.02 ± 0.017	-0.0115 ± 0.019	-0.0165 ± 0.018	-0.0005 ± 0.026	0.017 ± 0.0028	-0.0025 ± 0.0064	0.005 ± 0.018	-0.001 ± 0.038	0.0055 ± 0.035	-0.035 ± 0.083	0.0165 ± 0.019	0.01 ± 0.028	-0.061 ± 0.037	-0.03 ± 0.031	-0.03 ± 0.068	-0.062 ± 0.05
HDF3CGF:Collagen I	-0.0055 ± 0.057	0.015 ± 0.014	0.041 ± 0.027	0.001 ± 0.0057	-0.01 ± 0.0071	0.0135 ± 0.066	0.02 ± 0.031	0.013 ± 0.057	0.067 ± 0.033	-0.005 ± 0.047	0.005 ± 0.09	0.0485 ± 0.12	0.005 ± 0.035	0.0075 ± 0.011	-0.0435 ± 0.015	-0.0105 ± 0.029	0.0175 ± 0.023	-0.013 ± 0.028
HDF3CGF:Collagen III	0.055 ± 0.016	0.039 ± 0.025	-0.03 ± 0.055	0.0055 ± 0.021	0.0365 ± 0.015	-0.008 ± 0.062	0.033 ± 0.0014	0.026 ± 0.0014	0.049 ± 0.0099	0.009 ± 0.051	0.0115 ± 0.064	0.0515 ± 0.026	0.0055 ± 0.022	0.0305 ± 0.011	-0.1 ± 0.018	-0.0355 ± 0.1	-0.0515 ± 0.1	-0.0555 ± 0.1
HDF3CGF:EGFR	-0.0255 ± 0.067	-0.089 ± 0.17	-0.0715 ± 0.19	-0.082 ± 0.045	-0.0785 ± 0.015	0.031 ± 0.035	-0.067 ± 0.058	-0.048 ± 0.016	-0.002 ± 0.042	-0.028 ± 0.02	-0.0305 ± 0.04	-0.0035 ± 0.005	0.0525 ± 0.0064	0.043 ± 0.024	-0.103 ± 0.059	-0.004 ± 0.014	-0.004 ± 0.0028	0.023 ± 0.047
HDF3CGF:M-CSF	0.0175 ± 0.005	0.0015 ± 0.0078	-0.013 ± 0.058	-0.0065 ± 0.016	0.0245 ± 0.021	0.0195 ± 0.011	-0.006 ± 0.017	0.01 ± 0.0014	0.0095 ± 0.021	-0.014 ± 0.02	-0.0235 ± 0.066	-0.0495 ± 0.077	0.0285 ± 0.037	0.0395 ± 0.035	-0.065 ± 0.038	-0.017 ± 0.064	-0.029 ± 0.044	-0.0245 ± 0.0092
HDF3CGF:MMP-1	0.023 ± 0.03	0.029 ± 0.024	0.006 ± 0.051	-0.0435 ± 0.019	-0.017 ± 0.0099	0.016 ± 0.028	0.0065 ± 0.0092	0.011 ± 0.0085	0.0085 ± 0.012	0.004 ± 0.0071	-0.0015 ± 0.04	-0.022 ± 0.064	0.0145 ± 0.0064	0.0155 ± 0.0035	-0.0185 ± 0.028	0.0265 ± 0.012	0.028 ± 0.0099	0.0355 ± 0.0035
HDF3CGF:PAI-I	0.0235 ± 0.12	0.035 ± 0.013	0.101 ± 0.033	0.0185 ± 0.0021	0.0435 ± 0.0064	0.0255 ± 0.032	-0.014 ± 0.078	0.0005 ± 0.059	0.0125 ± 0.019	0.0045 ± 0.0035	0.006 ± 0.038	-0.0145 ± 0.0021	-0.0075 ± 0.083	0.081 ± 0.0071	-0.0365 ± 0.037	-0.0135 ± 0.0035	-0.0175 ± 0.0064	0.009 ± 0.025
HDF3CGF:Proliferation 72hr	-0.0015 ± 0.057	0.0385 ± 0.013	0.03 ± 0.037	0.126 ± 0.04	0.155 ± 0.1	-0.0105 ± 0.0035	-0.0375 ± 0.005	-0.0485 ± 0.019	-0.048 ± 0.028	-0.0185 ± 0.021	0.0055 ± 0.025	-0.008 ± 0.037	0.058 ± 0.03	0.0595 ± 0.0078	-0.267 ± 0.028	-0.0905 ± 0.044	-0.0925 ± 0.047	-0.0225 ± 0.13
HDF3CGF:SRB	0.017 ± 0.0014	0.0365 ± 0.025	0.043 ± 0.034	0.015 ± 0.021	-0.0095 ± 0.005	-0.0345 ± 0.035	0.024 ± 0.0042	0.022 ± 0.011	0.0245 ± 0.005	0.0095 ± 0.052	0.0215 ± 0.06	0.02 ± 0.061	-0.0045 ± 0.0064	-0.009 ± 0.052	-0.002 ± 0.033	-0.0095 ± 0.029	-0.0105 ± 0.0021	0.0375 ± 0.0064
HDF3CGF:TIMP-1	-0.0065 ± 0.00071	0.002 ± 0.0042	-0.007 ± 0.0085	0.016 ± 0.038	0.053 ± 0.0057	0.139 ± 0.016	0.0155 ± 0.059	0.0025 ± 0.05	0.0015 ± 0.0064	-0.0155 ± 0.05	-0.0145 ± 0.06	-0.017 ± 0.1	0.0235 ± 0.0078	0.048 ± 0.021	0.05 ± 0.017	-0.0015 ± 0.067	0.015 ± 0.068	-0.0025 ± 0.071
HDF3CGF:TIMP-2	-0.0005 ± 0.011	0.0185 ± 0.012	-0.0085 ± 0.042	-0.002 ± 0.048	-0.0185 ± 0.013	-0.0205 ± 0.0021	-0.0315 ± 0.016	0.0165 ± 0.06	0.0025 ± 0.091	-0.0205 ± 0.029	-0.024 ± 0.014	0.0025 ± 0.032	0.012 ± 0.023	0.0005 ± 0.0021	-0.157 ± 0.0057	-0.0395 ± 0.16	-0.061 ± 0.11	-0.038 ± 0.1
KF3CT:CCL2/MCP-1	-0.0055 ± 0.0035	-0.0305 ± 0.033	0.001 ± 0.052	-0.031 ± 0.025	-0.0315 ± 0.019	-0.0485 ± 0.016	0.0175 ± 0.032	0.02 ± 0.0042	0.0215 ± 0.018	0.0125 ± 0.005	0.012 ± 0.0085	0.0085 ± 0.021	-0.0225 ± 0.021	-0.0525 ± 0.013	-0.0145 ± 0.013	-0.031 ± 0.04	-0.0685 ± 0.023	-0.026 ± 0.042
KF3CT:CXCL8/IL-8	0.001 ± 0.028	0.0005 ± 0.025	0.007 ± 0.0071	0.006 ± 0.0042	0.0095 ± 0.016	0.0615 ± 0.025	-0.0465 ± 0.036	-0.03 ± 0.014	-0.0165 ± 0.03	0.001 ± 0.044	-0.0015 ± 0.028	0.004 ± 0.02	-0.039 ± 0.023	-0.0345 ± 0.0092	-0.0395 ± 0.03	-0.021 ± 0.027	-0.0135 ± 0.03	0.0015 ± 0.0035
KF3CT:CXCL9/MIG	0.007 ± 0.0057	-0.007 ± 0.0085	0.006 ± 0.0085	-0.0045 ± 0.005	-0.002 ± 0.0057	0.005 ± 0.0042	0.006 ± 0.0042	0.011 ± 0.0085	0.007 ± 0.0099	0.0155 ± 0.00071	-0.003 ± 0.0014	0.014 ± 0.011	0.0005 ± 0.0035	-0.0075 ± 0.016	-0.008 ± 0.0057	-0.0095 ± 0.00071	-0.002 ± 0.025	-0.0085 ± 0.012
